Columns and labels:
[1] = type: physicochemical
Protocol: 53 mg of Sample 42 (Form A) and 47 mg of Sample (Form C) were suspended in 1 mL of an ethyl acetate/heptane (1:3) mixture at room temperature. After two hours of stirring at room temperature, one additional mL of the solvent mixture was added to the suspension. After another 1 hour of stirring, the suspension was seeded with Sample 42 and Sample 55 (about 10-20 mg). Further stirring was conducted at room temperature for one week. Then the suspension was filtered using a centrifugal unit filter (PTFE, 0.2 μm, 5000 rpm, room temperature).
The remaining substance from Sample 56 (approx. 42 mg) was further equilibrated in 0.5 mL of an ethyl acetate/heptane (1:3) mixture at room temperature After one month of stirring, the suspension was filtered using a centrifugal unit filter (PTFE, 0.2 μm, 5000 rpm, room temperature). […] The resulting Crystalline Form C of Example 27a is herein referred to as Sample 56A.
71 mg of Sample 42 (Form A) and 73 mg of Sample 55 (Form C) were suspended in 1 mL of an ethyl acetate/heptane (1:3) mixture at 60° C. After two hours of stirring at 60° C., one additional mL of the solvent mixture was added to the suspension. After another 1 hour of stirring, the suspension was seeded with Samples 42 and 55 (about 10-20 mg). Further stirring was conducted at 60° C. After four days of stirring, a solution with material on the glass side was obtained. Approx. […]

[2] = hygroscopicity testing via dynamic vapor sorption (DVS); type: physicochemical; details: for hygroscopicity classification: DVS, class based on mass gain at 85% RH; for absorption of water (DVS): storage at 95% relative humidity for five hours
Protocol: Sorption isotherms were obtained using an SPS11-100n Sorptions Prufsystem from ProUmid (formerly Projekt Messtechnik). About 5 mg to about 20 mg of sample were placed into an aluminum sample plan on top of a microbalance and allowed to equilibrate at 50% relative humidity (RH) before starting the following applied measurement program. Humidity change rates of 5% per hour were used. The applied measurement program can be described as follows: • (1) 2 h at 50% RH • (2) 50→0% RH (5%/h); 5 h at 0% RH • (3) 0→95% RH (5%/h); 5 h at 95% RH • (4) 95→0% RH (5%/h); 5 h at 0% RH • (5) 0→95% RH (5%/h); 5 h at 95% RH • (6) 95→50% RH (5%/h); 2 h at 50% RH. The sample was recovered after completion of the isotherm and re-analyzed by XRPD. Hygroscopicity was classified based on the mass gain at 85% relative humidity (RH) relative to the initial mass as follows: deliquescent (sufficient water adsorbed to form a liquid), very hygroscopic (mass increase […]), hygroscopic (mass increase <15% but ≥2%), slightly hygroscopic (mass increase <2% but ≥0.2%), or non-hygroscopic (mass increase <0.2%).

[3] = solubility in common organic solvents; type: physicochemical
[4] = system: fleas (Ctenocephalides felis); details: in vitro ingesting activity; cited from earlier work
[5] = in vivo; cited from earlier work

Cc1cc(C2=NO[C@@](c3cc(C(F)(F)F)cc(Cl)c3F)(C(F)(F)F)C2)ccc1C(=O)NCC(=O)NCC(F)(F)F [Crystalline Form A, 2-methyl-N-[2-oxo-2-(2,2,2-trifluoroethylamino)ethyl]-4-[(5S)-5-[3-chloro-2-fluoro-5-(trifluoromethyl)phenyl]-5-(trifluoromethyl)-4H-isoxazol-3-yl]benzamide]
relative stability of Form A versus Form C [1]: stable form at room temperature
hygroscopicity classification [2]: slightly hygroscopic (slightly hygroscopic (mass increase <2% but ≥0.2%))
absorption of water (DVS) [2]: ~0.5%

Cc1cc(C2=NO[C@@](c3cc(C(F)(F)F)cc(Cl)c3F)(C(F)(F)F)C2)ccc1C(=O)NCC(=O)NCC(F)(F)F [Crystalline Form B, 2-methyl-N-[2-oxo-2-(2,2,2-trifluoroethylamino)ethyl]-4-[(5S)-5-[3-chloro-2-fluoro-5-(trifluoromethyl)phenyl]-5-(trifluoromethyl)-4H-isoxazol-3-yl]benzamide]
absorption of water (DVS) [2]: up to 1.2%

Cc1cc(C2=NO[C@@](c3cc(C(F)(F)F)cc(Cl)c3F)(C(F)(F)F)C2)ccc1C(=O)NCC(=O)NCC(F)(F)F [Form C, 2-methyl-N-[2-oxo-2-(2,2,2-trifluoroethylamino)ethyl]-4-[(5S)-5-[3-chloro-2-fluoro-5-(trifluoromethyl)phenyl]-5-(trifluoromethyl)-4H-isoxazol-3-yl]benzamide]
relative stability of Form A versus Form C [1]: stable form at 30° and above

Cc1cc(C2=NO[C@@](c3cc(C(F)(F)F)cc(Cl)c3F)(C(F)(F)F)C2)ccc1C(=O)NCC(=O)NCC(F)(F)F [amorphous form of the compound of Formula 1] [2-methyl-N-[2-oxo-2-(2,2,2-trifluoroethylamino)ethyl]-4-[(5S)-5-[3-chloro-2-fluoro-5-(trifluoromethyl)phenyl]-5-(trifluoromethyl)-4H-isoxazol-3-yl]benzamide]
solubility in common organic solvents [3]: high solubility
hygroscopicity classification [2]: slightly hygroscopic (slightly hygroscopic (mass increase <2% but ≥0.2%))
solid form after DVS measurement (XRPD) ([2]; XRPD after DVS): No crystallization occurred
absorption of water (DVS) [2]: ~1.5%

Cc1cc(C2=NO[C@@](c3cc(C(F)(F)F)cc(Cl)c3F)(C(F)(F)F)C2)ccc1C(=O)NCC(=O)NCC(F)(F)F [compound of Formula 1, 2-methyl-N-[2-oxo-2-(2,2,2-trifluoroethylamino)ethyl]-4-[(5S)-5-[3-chloro-2-fluoro-5-(trifluoromethyl)phenyl]-5-(trifluoromethyl)-4H-isoxazol-3-yl]benzamide]
EC50 [4]: < 1 ppm
half-life [5]: 50 days

Source: US20240383867A1, “CRYSTALLINE FORMS OF ISOXAZOLINE COMPOUND” (ELANCO US, INC., priority 2021, published 2024)
